One assay deals with T1, recombinant human MER (Homo sapiens, UniProt Q12866).
T1 construct: purchased Invitrogen
T1 sequence (Q12866 21-999): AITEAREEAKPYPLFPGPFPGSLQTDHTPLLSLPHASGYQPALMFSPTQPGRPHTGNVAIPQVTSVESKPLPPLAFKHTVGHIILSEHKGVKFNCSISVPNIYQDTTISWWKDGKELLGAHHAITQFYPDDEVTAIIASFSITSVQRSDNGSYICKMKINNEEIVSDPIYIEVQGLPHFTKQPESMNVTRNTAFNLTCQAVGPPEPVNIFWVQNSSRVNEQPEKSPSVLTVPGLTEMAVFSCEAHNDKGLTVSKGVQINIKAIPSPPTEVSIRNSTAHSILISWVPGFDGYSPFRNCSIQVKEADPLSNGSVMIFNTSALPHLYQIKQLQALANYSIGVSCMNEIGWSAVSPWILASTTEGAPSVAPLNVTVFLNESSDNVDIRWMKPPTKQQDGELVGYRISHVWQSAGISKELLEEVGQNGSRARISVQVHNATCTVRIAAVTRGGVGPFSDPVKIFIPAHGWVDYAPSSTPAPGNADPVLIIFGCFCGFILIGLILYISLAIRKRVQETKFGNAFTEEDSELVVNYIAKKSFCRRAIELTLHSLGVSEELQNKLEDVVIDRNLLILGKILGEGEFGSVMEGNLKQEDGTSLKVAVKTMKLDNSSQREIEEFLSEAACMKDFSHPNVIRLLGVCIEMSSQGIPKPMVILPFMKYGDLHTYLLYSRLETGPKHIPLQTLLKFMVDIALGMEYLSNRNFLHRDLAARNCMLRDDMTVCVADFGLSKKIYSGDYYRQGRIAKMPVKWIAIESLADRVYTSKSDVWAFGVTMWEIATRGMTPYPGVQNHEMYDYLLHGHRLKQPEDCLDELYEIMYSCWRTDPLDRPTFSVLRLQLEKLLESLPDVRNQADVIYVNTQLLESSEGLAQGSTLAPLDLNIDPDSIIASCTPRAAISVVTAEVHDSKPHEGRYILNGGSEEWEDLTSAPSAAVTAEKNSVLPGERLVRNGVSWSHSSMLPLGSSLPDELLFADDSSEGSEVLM
The assay can be described thus: Biochemical potency, HTRF KinEASE-TK kinase assay. The conditions noted are these: 1 nM MER, 700 μM ATP. A digest of the protocol: (§1)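 HTRF 665/620 readout after a 2 h RT kinase reaction (final 700 μM ATP, 800 nM biotinylated TK substrate, 1% DMSO, HEPES pH 7.4 buffer) gave percent activity. Final enzyme was 5 nM for AXL, 1 nM for TYRO3 or MER, each preincubated 1 h with compound.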

The target of the next assay is T2, recombinant human TYRO3 (Homo sapiens, UniProt Q06418).
T2 construct: purchased Invitrogen
T2 sequence (Q06418 41-890): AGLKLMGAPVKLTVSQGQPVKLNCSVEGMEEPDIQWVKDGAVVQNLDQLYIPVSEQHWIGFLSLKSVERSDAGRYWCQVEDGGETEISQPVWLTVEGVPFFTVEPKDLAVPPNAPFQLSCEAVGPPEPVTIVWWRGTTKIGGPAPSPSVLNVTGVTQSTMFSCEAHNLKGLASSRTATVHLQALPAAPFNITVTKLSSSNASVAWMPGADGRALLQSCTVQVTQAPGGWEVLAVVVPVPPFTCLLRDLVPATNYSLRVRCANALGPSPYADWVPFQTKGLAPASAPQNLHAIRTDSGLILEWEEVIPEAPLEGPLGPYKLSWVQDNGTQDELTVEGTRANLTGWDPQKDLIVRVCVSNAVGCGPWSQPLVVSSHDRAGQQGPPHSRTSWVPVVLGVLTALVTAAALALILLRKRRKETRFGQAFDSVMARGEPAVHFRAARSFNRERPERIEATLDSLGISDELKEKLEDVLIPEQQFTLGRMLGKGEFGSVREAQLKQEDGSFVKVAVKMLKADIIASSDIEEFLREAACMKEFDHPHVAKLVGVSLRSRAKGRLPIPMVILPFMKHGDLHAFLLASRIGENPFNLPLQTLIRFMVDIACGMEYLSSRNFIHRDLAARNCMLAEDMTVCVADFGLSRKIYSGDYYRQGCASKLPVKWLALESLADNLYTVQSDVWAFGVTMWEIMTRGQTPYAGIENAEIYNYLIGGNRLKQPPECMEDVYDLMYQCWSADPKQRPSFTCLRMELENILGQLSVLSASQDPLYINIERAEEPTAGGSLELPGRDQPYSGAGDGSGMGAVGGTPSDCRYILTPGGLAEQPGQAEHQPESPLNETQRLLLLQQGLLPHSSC
The assay can be described thus: Biochemical potency, HTRF KinEASE-TK kinase assay. The conditions noted are these: 1 nM TYRO3, 700 μM ATP. The essentials:
as §1

The structures appear in SMILES notation.

Consider `CC(C)(C#N)c1cccnc1-c1ccc(-c2n[nH]c3ncc(-c4ccc5c(c4)CC[C@@H](N4C6COCC4C6)CC5)cc23)cc1` [Example 85, 2-Methyl-2-[2-[4-[5-[(7S)-7-(3-oxa-6-azabicyclo[3.1.1]heptan-6-yl)-6,7,8,9-tetrahydro-5H-benzo[7]annulen-3-yl]-1H-pyrazolo[3,4-b]pyridine-3-yl]phenyl]pyridine-3-yl]propanenitrile], for which the IC50 at recombinant human MER and on recombinant human TYRO3 was 100 to 1000 nM each time.
For `Clc1cc(-c2c[nH]c3ncc(-c4ccc5c(c4)CC[C@@H](N4C6COCC4C6)CC5)cc23)ccc1-c1ccccn1` [Example 44, 6-[(7S)-2-{3-[3-Chloro-4-(pyridin-2-yl)phenyl]-1H-pyrrolo[2,3-b]pyridin-5-yl}-6,7,8,9-tetrahydro-5H-benzo[7]annulen-7-yl]-3-oxa-6-azabicyclo[3.1.1]heptane], the IC50 at recombinant human MER and on recombinant human TYRO3 was 100 to 1000 nM in each case.
Turning to `Cc1cnc(-c2ccc(-c3c[nH]c4ncc(-c5ccc6c(c5)CC[C@@H](N5C7COCC5C7)CC6)cc34)cc2)c(C)n1` [Example 50, 6-[(7S)-2-{3-[4-(3,5-Dimethylpyrazin-2-yl)phenyl]-1H-pyrrolo[2,3-b]pyridin-5-yl}-6,7,8,9-tetrahydro-5H-benzo[7]annulen-7-yl]-3-oxa-6-azabicyclo[3.1.1]heptane], the IC50 on recombinant human MER and at recombinant human TYRO3 was 100 to 1000 nM each time.
Regarding `Cc1nccnc1-c1ccc(-c2c[nH]c3ncc(-c4ccc5c(c4)CC[C@@H](N4C6COCC4C6)CC5)cc23)cc1` [Example 48, 6-[(7S)-2-{3-[4-(3-Methylpyrazin-2-yl)phenyl]-1H-pyrrolo[2,3-b]pyridin-5-yl}-6,7,8,9-tetrahydro-5H-benzo[7]annulen-7-yl]-3-oxa-6-azabicyclo[3.1.1]heptane], the IC50 on recombinant human MER and at recombinant human TYRO3 was 100 to 1000 nM in each case.
Consider `C[C@@H]1CCCN1[C@@]1(C)CCc2ccc(-c3cnc4[nH]nc(-c5ccc(-c6ncco6)cc5)c4c3)cc2CC1` [Example 90, 2-(4-{5-[(7S)-7-Methyl-7-[(2R)-2-methylpyrrolidin-1-yl]-6,7,8,9-tetrahydro-5H-benzo[7]annulen-2-yl]-2H-pyrazolo[3,4-b]pyridin-3-yl}phenyl)-1,3-oxazole], for which the IC50 at recombinant human MER and on recombinant human TYRO3 was 100 to 1000 nM each time.
As for `Cc1cncnc1-c1ccc(-c2c[nH]c3ncc(-c4ccc5c(c4)CC[C@@H](N4C6COCC4C6)CC5)cc23)cc1` [Example 47, 6-[(7S)-2-{3-[4-(5-Methylpyrimidin-4-yl)phenyl]-1H-pyrrolo[2,3-b]pyridin-5-yl}-6,7,8,9-tetrahydro-5H-benzo[7]annulen-7-yl]-3-oxa-6-azabicyclo[3.1.1]heptane], the IC50 on recombinant human MER and at recombinant human TYRO3 was < 100 nM throughout.
`N#Cc1cccnc1-c1ccc(-c2c[nH]c3ncc(-c4ccc5c(c4)CC[C@@H](N4C6COCC4C6)CC5)cc23)cc1` [Example 46, 2-(4-{5-[(7S)-7-{3-Oxa-6-azabicyclo[3.1.1]heptan-6-yl}-6,7,8,9-tetrahydro-5H-benzo[7]annulen-2-yl]-1H-pyrrolo[2,3-b]pyridin-3-yl}phenyl)pyridine-3-carbonitrile]: the IC50 at recombinant human MER and at recombinant human TYRO3 was 100 to 1000 nM each time.
As for `Fc1cccnc1-c1ccc(-c2c[nH]c3ncc(-c4ccc5c(c4)CC[C@@H](N4C6COCC4C6)CC5)cc23)cc1` [Example 42, 6-[(7S)-2-{3-[4-(3-Fluoropyridin-2-yl)phenyl]-1H-pyrrolo[2,3-b]pyridin-5-yl}-6,7,8,9-tetrahydro-5H-benzo[7]annulen-7-yl]-3-oxa-6-azabicyclo[3.1.1]heptane], the IC50 at recombinant human MER and at recombinant human TYRO3 was 100 to 1000 nM each time.
As to `Cc1ccnnc1-c1ccc(-c2c[nH]c3ncc(-c4ccc5c(c4)CC[C@@](C)(N4CCC[C@H]4C)CC5)cc23)cc1` [Example 51, 4-methyl-3-(4-{5-[(7S)-7-Methyl-7-[(2R)-2-methylpyrrolidin-1-yl]-6,7,8,9-tetrahydro-5H-benzo[7]annulen-2-yl]-1H-pyrrolo[2,3-b]pyridin-3-yl}phenyl)pyridazine], the IC50 at recombinant human MER and at recombinant human TYRO3 was < 100 nM throughout.
In the case of `FC(F)(F)c1cccnc1-c1ccc(-c2n[nH]c3ncc(-c4ccc5c(c4)CC[C@@H](N4C6COCC4C6)CC5)cc23)cc1` [Example 88, 6-[(7S)-3-[3-[4-[3-(Trifluoromethyl)pyridin-2-yl]phenyl]-1H-pyrazolo[3,4-b]pyridin-5-yl]-6,7,8,9-tetrahydro-5H-benzo[7]annulen-7-yl]-3-oxa-6-azabicyclo[3.1.1]heptane], the IC50 at recombinant human MER and on recombinant human TYRO3 was 100 to 1000 nM each time.
As for `Fc1cc(-c2c[nH]c3ncc(-c4ccc5c(c4)CC[C@@H](N4C6COCC4C6)CC5)cc23)ccc1-c1ccccn1` [Example 40, 6-[(7S)-2-{3-[3-Fluoro-4-(pyridin-2-yl)phenyl]-1H-pyrrolo[2,3-b]pyridin-5-yl}-6,7,8,9-tetrahydro-5H-benzo[7]annulen-7-yl]-3-oxa-6-azabicyclo[3.1.1]heptane], the IC50 at recombinant human MER and on recombinant human TYRO3 was 100 to 1000 nM throughout.
In the case of `Cc1cc(C)c(-c2ccc(-c3n[nH]c4ncc(-c5ccc6c(c5)CC[C@@](C)(N5CCC[C@H]5C)CC6)cc34)cc2)nn1` [Example 78, 4,6-Dimethyl-3-(4-{5-[(7S)-7-methyl-7-[(2R)-2-methylpyrrolidin-1-yl]-6,7,8,9-tetrahydro-5H-benzo[7]annulen-2-yl]-1H-pyrazolo[3,4-b]pyridin-3-yl}phenyl)pyridazine], the IC50 at recombinant human MER and at recombinant human TYRO3 was < 100 nM each time.
Regarding `Cc1ccnnc1-c1ccc(-c2c[nH]c3ncc(-c4ccc5c(c4)CC[C@@H](N4C6COCC4C6)CC5)cc23)cc1` [Example 49, 6-[(7S)-2-{3-[4-(4-Methylpyridazin-3-yl)phenyl]-1H-pyrrolo[2,3-b]pyridin-5-yl}-6,7,8,9-tetrahydro-5H-benzo[7]annulen-7-yl]-3-oxa-6-azabicyclo[3.1.1]heptane], the IC50 at recombinant human MER and on recombinant human TYRO3 was < 100 nM each time.
On to `CN(C)C(=O)c1ccccc1-c1ccc(-c2c[nH]c3ncc(-c4ccc5c(c4)CC[C@@H](N4C6COCC4C6)CC5)cc23)cc1` [Example 92, N,N-Dimethyl-4′-{5-[(7S)-7-{3-oxa-6-azabicyclo[3.1.1]heptan-6-yl}-6,7,8,9-tetrahydro-5H-benzo[7]annulen-2-yl]-1H-pyrrolo[2,3-b]pyridin-3-yl}-[1,1′-biphenyl]-2-carboxamide], for which the IC50 is 100 to 1000 nM on recombinant human MER and < 100 nM on recombinant human TYRO3.
For the compound `Cc1nncn1-c1ccc(-c2n[nH]c3ncc(-c4ccc5c(c4)CC[C@@H](N4C6COCC4C6)CC5)cc23)cc1` [Example 11, 6-[(7S)-2-{3-[4-(3-Methyl-4H-1,2,4-triazol-4-yl)phenyl]-1H-pyrazolo[3,4-b]pyridin-5-yl}-6,7,8,9-tetrahydro-5H-benzo[7]annulen-7-yl]-3-oxa-6-azabicyclo[3.1.1]heptane], the IC50 at recombinant human MER and at recombinant human TYRO3 was > 1000 nM in each case.

For the origin of these results see patent US12195482B1 (Arcus Biosciences, Inc., priority 2022, dated 2025).
